Columns and labels:
[1] = test system: MGM-1 cells; experiment: β-Amyloid regulation of the alternative pathway: ROS (2,7-DCF fluorescence); type: cell-based, human; conditions: 50 mM Aβ versus control, p < 0.01
Protocol: β-Amyloid Regulation of the Alternative Pathway: MGM-1 cells were plated on 96 well (~5,000 cells/well, for ROS measurements) or 24 well (~15,000 cells/well, for D measurements) plates (Coming Costar, Acton, MA). At the same time, 1mg Ab (Ab (1-42), AnaSpec Inc., San Jose, CA) was dissolved in 0.5 ml serum-free media and incubated at 4C for aggregation. 24 hours later, cells were incubated in DMEM with 10% fetal bovine serum and […] or […] and 10 mM Vitamin E (Sigma, St. Louis, MO). Control samples were incubated in DMEM with 10% FBS. Cells were incubated at 37C and 6% CO2 for at least 12 hours and processed for ROS generation (see below) or D synthesis as described above for the alternative experiments.
Treatment media was removed and the cells were washed with PBS. The fluorescent probe 2,7- dichlorofluorescin diacetate (2,7-DCF, Molecular Probes, Inc., Eugene, OR) was used to measure levels of oxidative stress (48). Cells were incubated with […] 2,7-DCF, fluorescence was measured at 485nm/535nm using the Victor^2 Multilabel Counter (EG&G Wallac, Gaithersburg, MD) and values of cellular fluorescence were obtained.

[2] = test system: MGM-1 cells; experiment: β-Amyloid regulation of the alternative pathway: D synthesis; type: cell-based, human; conditions: 50 mM Aβ versus control, p < 0.01
Protocol: Alternative Pathway: To determine the amount ofD synthesized by the alternative pathway cells were treated as previously described (15). In brief, cells were washed and oligodendrocytes and astrocytes were incubated with increasing concentrations of FeSO4 in serum free media, with and without SU 10603 (10 mM); neurons were incubated in serum free media containing 5 mM P plus FeSO4, with and without 10 mM SU 10603. After two hours, cells and media were homogenized and extracted as described above. Extracts were run on C18 TLC plates (Whatman, Clifton, NJ) with a mobile phase of 95% methanol (v/v); radiolabeled standards for P, progesterone, and D were run on each plate, and appropriate steroid fractions were collected for each sample. TLC fractions were extracted with 2 ml diethyl ether (Fluka, New York) and evaporated. TLC extracts were assayed by specific radioimmunoassay (RIA). […]
RIA using antibodies specific for each steroid (ICN Pharmaceuticals, Costa Mesa, CA Mesa) was used to measure P, progesterone and D levels. The data were analyzed using the IBM-PC RIA Data Reduction Program (version 4.1) from Jaffe and Associates (Silver Spring, MD). Levels of β-amyloid species in AD and control brain samples were analyzed using 4G8 (Senetex PLC, Napa, CA), a monoclonal antibody to β-amyloid peptide that recognizes amino acids 17-24. […]

Substance: Aβ: β-amyloid peptide Ab (1-42), AnaSpec Inc., aggregated; a component of Alzheimer's disease plaques
- 2,7-DCF fluorescence (ROS) [1]: significant increase
- D levels [2]: increased D levels significantly over control

— patent publication EP1860442A2, “Neurosteroids as markers for Alzheimer's disease” (Georgetown University, priority 2000, dated 2001)
